Measurements taken from patent US20060067886A1, “Gastrin receptor-avid peptide conjugates” (priority 1997, published 2006).

Experiments:
[1] = target: T1, GRP receptors on Swiss 3T3 cells (Mus musculus, UniProt P21729); assay: Competitive cell binding vs 125I-Tyr4-BBN, Swiss 3T3 cells
T1 construct: endogenous in cells; host or cells: Swiss 3T3 mouse fibroblasts (whole cells)
Protocol: The binding affinities of the synthetic BBN derivatives were assessed for GRP receptors on Swiss 3T3 cells and, in some cases, on a variety of human cancer cell lines, that express GRP receptors. […] The cell binding assay methods used to measure the IC50's is standard and used techniques previously reported [Jensen et al., 1993; Cai et al., 1994; Cai et al., 1992]. The methods used for determining IC50's for all GRP receptor binding compounds on all cell lines was similar. The specific method used to measure IC50's on Swiss 3T3 cells is briefly described as follows:
(§1) Swiss 3T3 mouse fibroblasts are grown to confluence in 48 well microtiter plates. […] The growth media was removed, the cells were washed twice with incubation media, and incubation media was returned to the cells. ^125I-Tyr4-BBN (0.01 uCi) was added to each well in the presence of increasing concentrations of the appropriate competitive peptide. Typical concentrations of displacing peptide ranged from 10-12 to 10-5 moles of displacing ligand per well. The cells were incubated at 37° C. for forty minutes in a 95% […]/5% CO2 humidified environment. At forty minutes post initiation of the incubation, the medium was discarded, and the cells were washed twice with cold incubation media. The cells were harvested from the wells following incubation in a trypsin/EDTA solution for five minutes at 37° C. Subsequently, the radioactivity, per well, was determined and the maximum % total uptake of the radiolabeled peptide was determined and normalized to 100%.
The binding affinities of the synthetic BBN derivatives were assessed for GRP receptors on Swiss 3T3 cells, PC-3 cells and CF PAC-1 cells. The IC50's of each of derivative were determined relative to (i.e., in competition with) ^125I-Tyr^4-BBN. The cell binding assay methods used to measure the IC50's is standard and was used by techniques previously reported [Jensen et al., 1993; Cai et al., 1992; Cai et al., 1994]. The methods used for determining IC50's with all BBN analogue binding to GRP receptors present on all three cell lines were similar. The specific method used to measure IC50's on Swiss 3T3 cells, is briefly described as follows:
as §1, with “microliter” for “microtiter”, “^125I-Tyr^4-BBN” for “^125I-Tyr4-BBN”, “μCi)” for “uCi)”, “10^−12” for “10-12”, “10^−5” for “10-5”, “100%. A similar procedure was used in performing cell binding assays with both the PC-3 and CFa-PAC-1 human cancer cell lines.” for “100%.”

[2] = in vivo; conditions: SCID, mouse, in vivo, iv, 4 uCi, total radioactivity, Avg % ID, Heart, 24 hrs
Protocol: In vivo pharmacokinetic studies in human tumor bearing SCID mice. […] The xenograft models were produced by bilateral flank inoculation of 5×10^6 cells (PC-3 or MDA-MB-231 cells) per site. Four to six weeks post inoculation, palpable tumors were observed. At this point, the mice were injected with 4 μCi of the complex in […] of isotonic saline via the tail vein. The mice were euthanized and tissues and organs were excised from the animals at selected times post-injection (p.i.), including 15 minutes, 30 minutes, 1 hour, 4 hours, 24 hours, 48 hours, and 72 hours p.i. Subsequently, the tissues and organs were weighed and counted in a NaI well counter and the percent injected dose (% ID) and % ID/g of each organ or tissue calculated.
The mice were injected with 4 μCi of the complex in 100 μL of isotonic saline via the tail vein. The mice were euthanized by cervical dislocation. Tissues and organs were excised from the animals following at 1 hour, 4 hour, and 24 hours post-injection (p.i.). Subsequently, the tissues and organs were weighed and counted in a NaI well counter and the percent injected dose (% ID) and % ID/g of each organ or tissue calculated.

T1 sequence (P21729 whole entry): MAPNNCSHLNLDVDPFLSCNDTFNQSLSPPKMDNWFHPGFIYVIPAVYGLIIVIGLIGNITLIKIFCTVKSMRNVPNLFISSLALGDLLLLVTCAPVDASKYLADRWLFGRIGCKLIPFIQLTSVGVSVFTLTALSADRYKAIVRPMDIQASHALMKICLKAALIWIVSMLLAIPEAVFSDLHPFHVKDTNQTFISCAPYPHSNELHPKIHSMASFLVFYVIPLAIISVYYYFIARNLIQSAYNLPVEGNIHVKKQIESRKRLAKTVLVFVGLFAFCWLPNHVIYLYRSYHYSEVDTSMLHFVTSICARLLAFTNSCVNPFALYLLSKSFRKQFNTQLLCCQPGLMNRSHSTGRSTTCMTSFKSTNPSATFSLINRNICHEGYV

Structure (SMILES) | IC50 [1] [nM] | tissue uptake dose at 24 h [2] [%ID]
CSCC[C@H](NC(=O)[C@H](CC(C)C)NC(=O)[C@H](Cc1c[nH]cn1)NC(=O)CNC(=O)[C@@H](NC(=O)[C@H](C)NC(=O)[C@H](Cc1c[nH]c2ccccc12)NC(=O)[C@H](CCC(N)=O)NC(=O)CCCCCCCNC(=O)COC1CSCCCSCCCSCCCSC1)C(C)C)C(N)=O [BBN-47] | 4.19 ± 0.91 | –
CSCC[C@H](NC(=O)[C@H](CC(C)C)NC(=O)[C@H](Cc1cnc[nH]1)NC(=O)CNC(=O)[C@@H](NC(=O)[C@H](C)NC(=O)[C@H](Cc1c[nH]c2ccccc12)NC(=O)[C@H](CCC(N)=O)NC(=O)CCCCCCCNC(=O)CN1CCN(CC(=O)O)CCN(CC(=O)O)CCN(CC(=O)O)CC1)C(C)C)C(N)=O [177Lu-DOTA-8-Aoc-BBN[7-14]NH2, metal not drawn] | – | 0.01
CSCC[C@H](NC(=O)[C@H](CC(C)C)NC(=O)[C@H](Cc1c[nH]cn1)NC(=O)CNC(=O)[C@@H](NC(=O)[C@H](C)NC(=O)[C@H](Cc1c[nH]c2ccccc12)NC(=O)[C@H](CCC(N)=O)NC(=O)CCCCNC(=O)COC1CSCCCSCCCSCCCSC1)C(C)C)C(N)=O [BBN-37] | 1.79 ± 0.09 | –
